# Data published in the CATMoS acute toxicity set (Mansouri et al. 2021).
# Key:
# [1] = Nontoxic (NT; LD50>2,000mg/kg vs. all others); settings: rat; in vivo; po
# Excerpt: (§1) […]The data set underlying the modeling effort for this project was initially compiled by NICEATM and U.S. EPA’s CCTE. Briefly, LD50 data were collected from rat acute oral systemic toxicity tests, including limit tests, ranges/confidence intervals, and discrete LD50 values. The full data set included 21,200 LD50 entries for 15,688 substances. […] Data were reviewed to ensure that LD50 values with obvious errors in the extracted data such as unit conversion errors (e.g., comma and decimal separator misplacements) were either fixed or removed. After this review, 16,209 LD50 values remained. Many of the chemicals represented had multiple LD50 entries, requiring that a single representative value per Chemical Abstracts Service Registry Number (CASRN) identifier be defined to facilitate modeling efforts. Based on ATWG feedback and to define the representative LD50 as a protective value while accounting for the distribution across multiple LD50s, the median of the lowest quartile was computed using only discrete LD50 values (omitting limit test data and range and confidence interval data). A detailed summary of the data compilation is available online on the NICEATM webpage dedicated to the collaborative modeling project (NTP 2020).
# (§2) […][…] For categorical designations, limit test and range/confidence interval LD50 data were integrated wherever possible. As such, the number of chemicals with end point values/calls varies across the modeling end points (Table 3) based on whether chemicals had representative LD50 values and/or other data. If a chemical had both, the representative value was used to determine categorical calls rather than limit test data. Some data were useable only for certain end points and categories depending on the thresholds. For example, ranges that spanned multiple hazard categories were considered only for the binary (very toxic/nontoxic) end points and omitted from rendering a determination for hazard category assignment.
# (§3) […]The final data set comprising 11,992 chemicals was split into training and evaluation sets […], respectively. This process was performed semirandomly by ordering chemicals based on the five end points (categorical and continuous LD50 values) and partitioning every fourth record into the evaluation set accordingly. This approach was taken to ensure an equivalent distribution of the LD50 values and the different hazard categories between the training and the evaluation sets without supervised sampling of the chemicals based on structures (Figure 1A). The sources of the chemical structures were also kept equivalent between the two sets, with chemical structures obtained from DSSTox, being the highest quality, representing over 75% of each set (Figure 1B).
# rat acute oral toxicity = settings: in vivo
# [2] = GHS categories as the set defines them, by LD50: 1 up to 5, 2 up to 50, 3 up to 300, 4 up to 2000, 5 above 2000 mg/kg; settings: rat; in vivo; po
# [3] = Very toxic (VT; LD50≤50mg/kg vs. all others); settings: rat; in vivo; po
# Excerpt: as §1, §2, §3
# EPA categories = settings: rat; in vivo; po
# Excerpt: as §1, §2, §3
Structure (SMILES),nontoxic [1],LD50 (rat acute oral toxicity) [mg/kg],further results
CO[Si](C)(CCCCl)OC,FALSE (not_nontoxic),–,–
O=CC1=C(Cl)C(=CO)CCC1,FALSE (not_nontoxic),–,–
CCCCCCCC/C=C\CCCCCCCC(=O)O,–,25000,GHS category [2]: 5
CN(C)CCOCCOC(=O)NCC1(C)CC(NC(=O)OCCOCCN(C)C)CC(C)(C)C1 (stereo unspecified),FALSE (not_nontoxic),–,–
C[Si](Cl)(Cl)CCCCl,FALSE (not_nontoxic),–,–
Cc1ccc(S(=O)(=O)O)cc1,–,400,GHS category [2]: 5
C=CN1CCCC1=O,–,1020,GHS category [2]: 5
C=CCOC(=O)C(C)(C)O,FALSE (not_nontoxic),–,–
Nc1ccc(N)c2c1C(=O)c1c(N)ccc(N)c1C2=O,–,–,very_toxic [3]: FALSE (not_very_toxic)
CC(C)OC(=O)NP(N)(N)=O,FALSE (not_nontoxic),–,–
CCCCCCCCCCCCCC[N+](C)(C)[O-],–,–,very_toxic [3]: FALSE (not_very_toxic)
CC12CC(N3CCOCC3)C(O)CC1CCC1C2CCC2(C)C(O)C(N3CCCC3)CC12 (stereo unspecified),FALSE (not_nontoxic),–,–
CC(Cl)(Cl)CC(Cl)(Cl)Cl,–,–,EPA category (EPA categories): 2
O=S(=O)(O)c1cc(Nc2nc(Nc3ccccc3)nc(N(CCO)CCO)n2)ccc1/C=C/c1ccc(Nc2nc(Nc3ccccc3)nc(N(CCO)CCO)n2)cc1S(=O)(=O)O,–,12100,GHS category [2]: 5
CSc1c(C)cc(O)cc1C,–,–,very_toxic [3]: FALSE (not_very_toxic)
O=C1c2cccc(Sc3ccccc3)c2C(=O)c2c(Sc3ccccc3)cccc21,–,–,EPA category (EPA categories): 3
COc1c(C)cnc(CCl)c1C,FALSE (not_nontoxic),–,–
O=C1NC(=O)C2CCCC12 (stereo unspecified),–,–,very_toxic [3]: FALSE (not_very_toxic)
NC(N)=Nc1ccccc1,–,–,EPA category (EPA categories): 3
Nc1nc(N)nc(N)n1,–,3160,GHS category [2]: 5
Cc1cncc(C)c1,–,–,EPA category (EPA categories): 2
C1CCC2=NCCCN2CC1,FALSE (not_nontoxic),–,–
CCCCCCCCCCCCCCCC[Si](Cl)(Cl)Cl,FALSE (not_nontoxic),–,–

Structure (SMILES),nontoxic [1],LD50 (rat acute oral toxicity) [mg/kg],further results
O=[N+]([O-])c1cc(N(CCO)CCO)ccc1NCCO,–,–,EPA category (EPA categories): 3
CC(=O)O,–,1940,GHS category [2]: 5
COCCOCCOCCOB(OCCOCCOCCOC)OCCOCCOCCOC,–,–,very_toxic [3]: FALSE (not_very_toxic)
CC1OC(=O)C(C)OC1=O (stereo unspecified),–,3540,GHS category [2]: 5
CCCCCCCCCCCCCCCCCCOP1OCC2(CO1)COP(OCCCCCCCCCCCCCCCCCC)OC2 (stereo unspecified),–,–,very_toxic [3]: FALSE (not_very_toxic)
CO[Si](C)(CN=C=O)OC,FALSE (not_nontoxic),–,–
CC(CC(C)(C)C)C[Si](Cl)(Cl)Cl (stereo unspecified),FALSE (not_nontoxic),–,–
CC1(C(=O)Cl)CCCCC1,FALSE (not_nontoxic),–,–
CCC(C)c1cccc(C(C)CC)c1O (stereo unspecified),FALSE (not_nontoxic),–,–
NC(N)=O,–,8470,GHS category [2]: 5
Cc1cccc(S(=O)(=O)O)c1C,–,–,EPA category (EPA categories): 3
Cc1cc(C)c(O)c(C(C)(C)C)c1,FALSE (not_nontoxic),–,–
Nc1ccc(S(=O)(=O)O)cc1,–,12300,GHS category [2]: 5
CN(C(=O)CCl)c1ccc([N+](=O)[O-])cc1,FALSE (not_nontoxic),–,–
COC1CCCC1,FALSE (not_nontoxic),–,–
CCO[SiH](OCC)OCC,–,–,EPA category (EPA categories): 3
CCN(CC)CC,–,460,GHS category [2]: 5
CCCCCCCC[N+](C)(CCCCCCCC)CCCCCCCC,FALSE (not_nontoxic),–,–
O=C1CCCCCN1,–,1200,GHS category [2]: 4
Oc1ccccc1,–,317,GHS category [2]: 5
CCOC(=O)C(C#N)=CN,FALSE (not_nontoxic),–,–
Cc1ccc(C(C)(C)C)c(O)c1,FALSE (not_nontoxic),–,–
CN(C)C=CC(=O)c1cccnc1,FALSE (not_nontoxic),–,–

Structure (SMILES),nontoxic [1],LD50 (rat acute oral toxicity) [mg/kg],further results
O=C1c2ccccc2C(=O)N1[C@@H]1CCCNC1,FALSE (not_nontoxic),–,–
OCC(O)CO,–,9080,GHS category [2]: 5
c1ccc2[nH]nnc2c1,–,500,GHS category [2]: 4
N[C@@H](CCC(=O)O)C(=O)O,–,15800,GHS category [2]: 5
CCC[C@@H]1C[C@@H](C(=O)N[C@@H]([C@H]2O[C@H](SC)[C@H](O)[C@@H](O)[C@H]2O)[C@@H](C)O)N(C)C1,–,1000,GHS category [2]: 5
CCC[Si](Cl)(Cl)Cl,FALSE (not_nontoxic),–,–
NCCNCCNCCNCCN,–,2100,GHS category [2]: 4
CNC1=C(c2cccc(C(F)(F)F)c2)C(=O)C(c2ccccc2)O1 (stereo unspecified),–,–,very_toxic [3]: FALSE (not_very_toxic)
Cc1ccc(S(N)(=O)=O)cc1,–,2330,–
N#C[N-2],–,158,–
C1=CC2C3C=CC(C3)C2C1 (stereo unspecified),–,366,–
Cc1[nH]c(=O)n(C(C)(C)C)c(=O)c1Cl,–,1700,–
CC(O)C#N (stereo unspecified),–,21,–
CC(C)(C)c1cc(C(C)(C)C)c(O)c(C(C)(C)C)c1,–,1610,–
CC(=O)CC(=O)Nc1ccccc1C,–,1020,–
CCc1nn(C)c(C(=O)NCc2ccc(C(C)(C)C)cc2)c1Cl,–,595,–
CCCCCCCC/C=C\CCCCCCCCNCCCN,–,500,–
ClCC(Cl)CCl,–,136,–
O=C1CCC(=O)O1,–,1510,–
CC1(C)COCN1,–,950,–
CC(=O)CC(C)=O,–,570,–
Nc1ncnc2c1ncn2C1CC(O)C(COP(=O)(O)OP(=O)(O)OP(=O)(O)O)O1 (stereo unspecified),–,6770,–
CN,–,80,–
